This experiment deals with PimD (Streptomyces natalensis, UniProt Q9EW92). Description: UV-visible difference spectrophotometric titration. The experiment is classed as binding.

The values that follow come from publication PMC2932657 (Chemistry & biology, 2010).

SMILES strings stand for the structures.

The term Kd denotes the free concentration of one partner at which half of the binding sites on the other are occupied at equilibrium, for simple one-to-one binding. Read a low Kd as higher affinity. Turning to `C[C@@H]1C/C=C/C=C/C=C/C=C/[C@H](O[C@@H]2O[C@H](C)[C@@H](O)[C@H](N)[C@@H]2O)C[C@@H]2O[C@](O)(C[C@@H](O)C/C=C/C=C/C(=O)O1)C[C@H](O)[C@H]2C(=O)O` [4,5-desepoxypimaricin], binding was put at a Kd of 4 µM.
